Measured values taken from ChEMBL document CHEMBL1938364, “Discovery of orally active pyrazoloquinolines as potent PDE10 inhibitors for the management of schizophrenia” (Bioorg Med Chem Lett, 2012).
The source made the active and inactive calls. The rule behind the calls is not given here.

Columns and labels:
[1] = molecular target: cAMP and cAMP-inhibited cGMP 3',5'-cyclic phosphodiesterase 10A (Homo sapiens, UniProt Q9Y233); assay: Displacement of [3H]cAMP from human recombinant PDE10A1 by competitive binding assay
Chain of cAMP and cAMP-inhibited cGMP 3',5'-cyclic phosphodiesterase 10A (Q9Y233 whole entry): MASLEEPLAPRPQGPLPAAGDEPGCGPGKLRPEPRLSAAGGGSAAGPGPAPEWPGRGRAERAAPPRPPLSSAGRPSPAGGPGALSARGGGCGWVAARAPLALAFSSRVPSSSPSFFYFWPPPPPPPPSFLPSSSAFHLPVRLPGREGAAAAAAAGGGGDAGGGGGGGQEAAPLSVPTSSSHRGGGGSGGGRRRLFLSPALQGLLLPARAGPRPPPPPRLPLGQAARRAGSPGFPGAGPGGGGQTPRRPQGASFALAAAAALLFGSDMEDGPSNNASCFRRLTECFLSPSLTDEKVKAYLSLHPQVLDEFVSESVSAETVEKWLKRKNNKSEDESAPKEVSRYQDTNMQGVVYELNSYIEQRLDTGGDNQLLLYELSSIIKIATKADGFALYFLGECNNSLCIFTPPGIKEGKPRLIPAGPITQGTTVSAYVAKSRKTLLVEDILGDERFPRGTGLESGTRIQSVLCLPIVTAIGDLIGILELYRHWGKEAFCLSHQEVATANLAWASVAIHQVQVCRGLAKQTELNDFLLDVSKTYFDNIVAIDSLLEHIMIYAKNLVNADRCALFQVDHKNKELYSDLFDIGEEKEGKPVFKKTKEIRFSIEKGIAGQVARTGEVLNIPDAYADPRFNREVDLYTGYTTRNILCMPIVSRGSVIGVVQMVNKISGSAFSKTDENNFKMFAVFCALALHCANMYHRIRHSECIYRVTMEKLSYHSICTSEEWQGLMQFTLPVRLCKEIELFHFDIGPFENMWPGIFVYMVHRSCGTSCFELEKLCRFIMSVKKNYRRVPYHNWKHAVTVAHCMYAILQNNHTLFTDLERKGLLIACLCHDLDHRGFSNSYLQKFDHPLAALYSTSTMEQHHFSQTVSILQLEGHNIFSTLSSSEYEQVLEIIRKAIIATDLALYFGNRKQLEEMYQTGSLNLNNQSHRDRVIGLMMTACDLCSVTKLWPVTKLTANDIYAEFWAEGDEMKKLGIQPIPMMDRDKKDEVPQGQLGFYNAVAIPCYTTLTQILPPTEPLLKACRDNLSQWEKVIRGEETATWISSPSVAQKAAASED

Rattus norvegicus [2] = assay: Antipsychotic activity in rat schizophrenia model assessed as inhibition of MK801-induced hyperactivity at 30 mg/kg, po; type: functional; design: scale not given: the % may be the effect or the level left
Rattus norvegicus [3] = assay: Antipsychotic activity in rat schizophrenia model assessed as inhibition of MK801-induced hyperactivity at 10 mg/kg, po; type: functional
Rattus norvegicus [4] = assay: Antipsychotic activity in rat schizophrenia model assessed as inhibition of MK801-induced hyperactivity at 3 mg/kg, po; type: functional
[5] = molecular target: cGMP-specific 3',5'-cyclic phosphodiesterase (Homo sapiens, UniProt O76074); assay: Displacement of [3H]cAMP from PDE5A1 by competitive binding assay
[6] = Displacement of [3H]cAMP from PDE6 by competitive binding assay
Rattus norvegicus [7] = assay: Antipsychotic activity in orally dosed rat schizophrenia model assessed as inhibition of MK801-induced hyperactivity; type: functional; settings: po, read-out: MED
[8] = molecular target: cGMP-inhibited 3',5'-cyclic phosphodiesterase 3A (Homo sapiens, UniProt Q14432); assay: Displacement of [3H]cAMP from PDE3A by competitive binding assay
[9] = molecular target: High affinity cGMP-specific 3',5'-cyclic phosphodiesterase 9A (Homo sapiens, UniProt O76083); assay: Displacement of [3H]cAMP from PDE9A1 by competitive binding assay
Chain of High affinity cGMP-specific 3',5'-cyclic phosphodiesterase 9A (O76083 whole entry): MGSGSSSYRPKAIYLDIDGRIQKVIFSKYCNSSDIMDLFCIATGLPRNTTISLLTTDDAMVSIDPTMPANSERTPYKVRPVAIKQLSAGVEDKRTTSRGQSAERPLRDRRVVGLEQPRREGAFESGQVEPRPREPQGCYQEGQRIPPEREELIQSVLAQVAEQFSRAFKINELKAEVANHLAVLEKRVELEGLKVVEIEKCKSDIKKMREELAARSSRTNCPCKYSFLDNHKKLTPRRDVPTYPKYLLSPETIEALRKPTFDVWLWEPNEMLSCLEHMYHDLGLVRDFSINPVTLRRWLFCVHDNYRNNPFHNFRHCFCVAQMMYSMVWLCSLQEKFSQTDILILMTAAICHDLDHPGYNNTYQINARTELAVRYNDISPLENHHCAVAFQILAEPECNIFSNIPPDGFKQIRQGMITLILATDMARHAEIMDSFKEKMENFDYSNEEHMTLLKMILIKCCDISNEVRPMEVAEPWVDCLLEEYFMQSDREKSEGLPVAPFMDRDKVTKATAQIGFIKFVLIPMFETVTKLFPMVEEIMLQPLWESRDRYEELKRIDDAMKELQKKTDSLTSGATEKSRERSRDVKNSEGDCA

[10] = molecular target: Dual specificity calcium/calmodulin-dependent 3',5'-cyclic nucleotide phosphodiesterase 1A (Homo sapiens, UniProt P54750); assay: Displacement of [3H]cAMP from PDE1A3 by competitive binding assay
[11] = molecular target: High affinity 3',5'-cyclic-AMP phosphodiesterase 7A (Homo sapiens, UniProt Q13946); assay: Displacement of [3H]cAMP from PDE7A1 by competitive binding assay
[12] = molecular target: High affinity cAMP-specific and IBMX-insensitive 3',5'-cyclic phosphodiesterase 8A (Homo sapiens, UniProt O60658); assay: Displacement of [3H]cAMP from PDE8A1 by competitive binding assay
[13] = molecular target: cGMP-dependent 3',5'-cyclic phosphodiesterase (Homo sapiens, UniProt O00408); assay: Displacement of [3H]cAMP from PDE2A by competitive binding assay
Chain of cGMP-dependent 3',5'-cyclic phosphodiesterase (O00408 whole entry): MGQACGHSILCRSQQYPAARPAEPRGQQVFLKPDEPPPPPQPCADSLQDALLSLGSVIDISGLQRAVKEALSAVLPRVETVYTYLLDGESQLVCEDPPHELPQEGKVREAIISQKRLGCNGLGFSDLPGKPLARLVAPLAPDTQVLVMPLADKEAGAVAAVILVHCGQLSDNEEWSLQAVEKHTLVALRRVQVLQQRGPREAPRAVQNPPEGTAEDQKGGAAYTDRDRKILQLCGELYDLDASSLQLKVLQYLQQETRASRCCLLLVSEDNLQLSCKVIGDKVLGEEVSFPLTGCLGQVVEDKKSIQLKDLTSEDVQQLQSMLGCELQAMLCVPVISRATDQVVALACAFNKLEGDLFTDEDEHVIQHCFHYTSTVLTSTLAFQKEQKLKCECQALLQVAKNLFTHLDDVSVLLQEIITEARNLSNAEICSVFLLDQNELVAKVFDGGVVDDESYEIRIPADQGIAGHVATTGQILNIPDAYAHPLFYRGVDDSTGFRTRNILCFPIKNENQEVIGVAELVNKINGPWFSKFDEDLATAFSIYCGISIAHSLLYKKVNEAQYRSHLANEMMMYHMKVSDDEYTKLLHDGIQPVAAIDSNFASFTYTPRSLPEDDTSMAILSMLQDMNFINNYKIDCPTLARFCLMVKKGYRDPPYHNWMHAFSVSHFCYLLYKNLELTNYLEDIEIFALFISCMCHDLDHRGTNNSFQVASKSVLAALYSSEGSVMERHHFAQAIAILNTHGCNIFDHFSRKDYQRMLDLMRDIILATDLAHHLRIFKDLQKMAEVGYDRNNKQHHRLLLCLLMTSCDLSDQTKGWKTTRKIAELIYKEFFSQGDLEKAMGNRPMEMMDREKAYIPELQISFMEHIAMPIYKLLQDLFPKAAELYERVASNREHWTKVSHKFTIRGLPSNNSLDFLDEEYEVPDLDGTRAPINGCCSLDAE

[14] = molecular target: 3',5'-cyclic-AMP phosphodiesterase 4B (Homo sapiens, UniProt Q07343); assay: Displacement of [3H]cAMP from PDE4B2 by competitive binding assay
[15] = Protein binding in rat; type: ADME, organism-based; settings: plasma, read-out: PB (converted)
hERG (KCNH2) = hERG (KCNH2) (Homo sapiens, UniProt Q12809); assay: Inhibition of human ERG at 10 uM
Chain of hERG (KCNH2) (Q12809 whole entry): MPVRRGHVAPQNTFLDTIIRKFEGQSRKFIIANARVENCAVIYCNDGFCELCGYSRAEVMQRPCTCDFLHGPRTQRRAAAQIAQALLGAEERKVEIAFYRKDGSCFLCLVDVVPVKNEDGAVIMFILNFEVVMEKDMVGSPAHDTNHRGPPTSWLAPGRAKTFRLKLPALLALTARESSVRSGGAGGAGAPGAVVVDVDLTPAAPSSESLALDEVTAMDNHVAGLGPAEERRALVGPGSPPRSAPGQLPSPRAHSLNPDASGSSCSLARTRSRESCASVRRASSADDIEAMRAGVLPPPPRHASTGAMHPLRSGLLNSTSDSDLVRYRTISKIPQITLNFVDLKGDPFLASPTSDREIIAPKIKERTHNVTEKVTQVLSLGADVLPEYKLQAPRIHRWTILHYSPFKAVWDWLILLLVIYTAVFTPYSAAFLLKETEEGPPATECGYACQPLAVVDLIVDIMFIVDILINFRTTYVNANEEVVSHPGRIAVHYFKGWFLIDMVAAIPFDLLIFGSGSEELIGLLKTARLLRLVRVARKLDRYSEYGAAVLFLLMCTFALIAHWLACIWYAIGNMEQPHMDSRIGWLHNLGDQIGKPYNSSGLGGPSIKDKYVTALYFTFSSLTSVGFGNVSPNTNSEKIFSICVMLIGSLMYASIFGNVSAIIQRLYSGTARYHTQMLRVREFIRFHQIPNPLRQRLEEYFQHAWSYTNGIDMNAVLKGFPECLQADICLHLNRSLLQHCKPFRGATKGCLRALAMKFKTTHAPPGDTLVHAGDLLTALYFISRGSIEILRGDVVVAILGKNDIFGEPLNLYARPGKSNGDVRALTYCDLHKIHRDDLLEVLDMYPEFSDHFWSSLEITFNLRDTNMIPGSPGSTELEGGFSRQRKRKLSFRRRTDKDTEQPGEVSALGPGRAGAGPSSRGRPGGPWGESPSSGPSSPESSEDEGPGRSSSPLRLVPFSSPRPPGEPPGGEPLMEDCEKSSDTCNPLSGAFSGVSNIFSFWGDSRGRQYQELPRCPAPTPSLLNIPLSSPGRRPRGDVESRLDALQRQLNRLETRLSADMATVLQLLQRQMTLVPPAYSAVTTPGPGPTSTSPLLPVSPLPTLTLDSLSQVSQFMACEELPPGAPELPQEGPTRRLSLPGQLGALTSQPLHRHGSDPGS

[16] = Clearance in human hepatocytes assessed per million cells; type: ADME, cell-based, Hepatocyte; settings: read-out: CLH
Cytochrome P450 2D6 = Cytochrome P450 2D6 (Homo sapiens, UniProt P10635); assay: Inhibition of CYP2D6 up to 20 uM; type: ADME
Chain of Cytochrome P450 2D6 (P10635 whole entry): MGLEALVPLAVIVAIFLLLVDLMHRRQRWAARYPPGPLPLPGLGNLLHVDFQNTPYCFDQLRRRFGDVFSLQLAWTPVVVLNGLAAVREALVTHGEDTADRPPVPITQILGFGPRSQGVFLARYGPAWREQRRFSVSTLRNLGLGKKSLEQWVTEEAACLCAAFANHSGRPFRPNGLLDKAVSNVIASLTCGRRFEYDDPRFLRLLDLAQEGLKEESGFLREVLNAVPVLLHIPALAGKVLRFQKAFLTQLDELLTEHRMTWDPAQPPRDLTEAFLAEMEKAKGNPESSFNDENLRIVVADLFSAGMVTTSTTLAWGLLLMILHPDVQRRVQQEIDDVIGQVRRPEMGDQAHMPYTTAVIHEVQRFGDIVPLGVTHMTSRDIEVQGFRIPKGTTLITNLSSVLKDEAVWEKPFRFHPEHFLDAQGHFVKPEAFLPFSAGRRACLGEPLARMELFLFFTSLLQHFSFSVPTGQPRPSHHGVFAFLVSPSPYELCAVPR

Cytochrome P450 3A4 = Cytochrome P450 3A4 (Homo sapiens, UniProt P08684); assay: Inhibition of CYP3A4 up to 20 uM; type: ADME
Cytochrome P450 2C9 = Cytochrome P450 2C9 (Homo sapiens, UniProt P11712); assay: Inhibition of CYP2C9 up to 20 uM; type: ADME
Chain of Cytochrome P450 2C9 (P11712 whole entry): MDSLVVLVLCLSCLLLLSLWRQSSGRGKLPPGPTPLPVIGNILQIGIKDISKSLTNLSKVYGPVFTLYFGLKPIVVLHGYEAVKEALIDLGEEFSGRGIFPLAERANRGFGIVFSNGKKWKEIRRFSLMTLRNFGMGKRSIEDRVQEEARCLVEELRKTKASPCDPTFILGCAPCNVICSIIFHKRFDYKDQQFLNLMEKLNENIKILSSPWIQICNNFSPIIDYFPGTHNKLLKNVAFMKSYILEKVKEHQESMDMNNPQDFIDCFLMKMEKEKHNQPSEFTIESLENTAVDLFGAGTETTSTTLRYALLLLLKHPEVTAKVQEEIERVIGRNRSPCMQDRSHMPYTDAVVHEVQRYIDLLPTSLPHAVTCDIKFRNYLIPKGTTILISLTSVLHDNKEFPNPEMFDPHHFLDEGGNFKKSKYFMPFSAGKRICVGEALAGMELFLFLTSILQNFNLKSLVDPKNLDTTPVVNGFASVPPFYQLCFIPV

[17] = Clearance in monkey hepatocytes assessed per million cells; type: ADME, cell-based, Macaca mulatta, Hepatocyte; settings: rhesus monkey, read-out: CLH
Rattus norvegicus [18] = species: Rattus norvegicus; assay: Ratio of drug level in brain to plasma in rat after 6 hrs; type: ADME, organism-based
[19] = Drug level in rat brain after 6 hrs; type: ADME, organism-based; settings: read-out: Ct
[20] = Clearance in rat hepatocytes assessed per million cells; type: ADME, cell-based, Hepatocyte; settings: read-out: CLH
Rattus norvegicus [21] = assay: Toxicity in orally dosed rat schizophrenia model assessed as induction of hypolocomotion; type: organism-based; settings: in vivo, po

For `COc1cc(C)c2nc3[nH]nc(C)c3c(CN3C[C@@H](C)O[C@@H](C)C3)c2c1`, the Ki [1] was 26 nM.

For `COc1cc(C)c2nc3[nH]nc(C)c3c(CN3CC4CC3CO4)c2c1` (stereo not drawn), the Ki [1] was 46 nM.

With `COc1cc(C)c2nc3[nH]nc(C)c3c(CN3CCC(CO)C3)c2c1` (stereo not drawn) the Activity (Rattus norvegicus [2]) was 38%, the Activity (Rattus norvegicus [3]) was “inactive” and the Activity (Rattus norvegicus [4]) was “inactive”. The Ki [1] was 32 nM.

Molecule `COc1cc(C)c2nc3[nH]nc(C)c3c(CN3CCC(F)CC3)c2c1` has a Ki [1] of 202 nM.

`Cc1cc(O)cc2c(CN3CCCOCC3)c3c(C)n[nH]c3nc12` showed a Ki [5] of 20800 nM, a Ki [1] of 2 nM and a Ki [6] of 2400 nM.

`COc1cc(C)c2nc3[nH]nc(C)c3c(CN3C4CCC3CC4)c2c1` showed a Ki [1] of 1200 nM.

For `COc1cc(C)c2nc3[nH]nc(C)c3c(CN3CCOC(CO)C3)c2c1` (stereo not drawn), the Activity (Rattus norvegicus [2]) was 104%, the Activity (Rattus norvegicus [3]) was “inactive” and the Activity (Rattus norvegicus [4]) was “inactive”. The Ki [5] was 5000 nM, the Ki [1] was 0.6 nM and the Ki [6] was 300 nM.

With `COc1cc(C)c2nc3[nH]nc(C)c3c(CN3CC[C@@H](O)C3)c2c1` the Activity (Rattus norvegicus [2]) was 102%, the Activity (Rattus norvegicus [3]) was “inactive” and the Activity (Rattus norvegicus [4]) was “inactive”. It also gave a Ki [5] of 6400 nM, a Ki [1] of 3 nM and a Ki [6] of 4700 nM.

In the case of `COc1cc(C)c2nc3[nH]nc(C)c3c(CN3CCN[C@H](C)C3)c2c1`, the Activity (Rattus norvegicus [2]) is reported as “inactive” and the Ki [1] is reported as 30 nM.

In the case of `COc1cc(C)c2nc3[nH]nc(C)c3c(CN3CCCC3)c2c1`, the Activity (Rattus norvegicus [2]) is reported as 122%, the minimal effective dose (Rattus norvegicus [7]) is reported as 1 mg/kg and the Activity (Rattus norvegicus [3]) is reported as 107%. For the same molecule, the Activity (Rattus norvegicus [4]) was 96% and the Ki [1] was 24 nM.

Work on `Cc1cc(OC(F)(F)F)cc2c(CN3CCCOCC3)c3c(C)n[nH]c3nc12` yielded a Ki [1] of 19 nM.

With `COc1cc(C)c2nc3[nH]nc(C)c3c(CN3CCC(O)CC3)c2c1` the Activity (Rattus norvegicus [2]) was 136%, the Activity (Rattus norvegicus [3]) was “inactive” and the Activity (Rattus norvegicus [4]) was “inactive”. It also gave a Ki [1] of 57 nM.

For `COCCOc1cc(C)c2nc3[nH]nc(C)c3c(CN3CCCOCC3)c2c1`, the Ki [8] was greater than 10000 nM, the Ki [9] was greater than 10000 nM and the Ki [10] was greater than 10000 nM. It also gave a Ki [11] greater than 10000 nM, a Ki [12] greater than 10000 nM and a Ki [13] greater than 10000 nM. For the same molecule, the Ki [14] was greater than 10000 nM, the Ki [5] was 24400 nM and the Ki [1] was 1 nM. For the same molecule, the Ki [6] was 5900 nM.

Work on `COc1cc(OC)c2nc3[nH]nc(C)c3c(CN3CCCOCC3)c2c1` yielded a Ki [1] of 14 nM.

`COc1cc(C)c2nc3[nH]nc(C)c3c(CN3CCCOCC3)c2c1` gave an Activity (Rattus norvegicus [2]) of 103%, a fraction unbound [15] of 0.03 and an inhibition at 10 µM (hERG (KCNH2)) of 5.3%. The hepatocyte CLint [16] was 8.3 µL/min/1e6 cells, the minimal effective dose (Rattus norvegicus [7]) was 3 mg/kg and the Activity (Rattus norvegicus [3]) was 120%. For the same molecule, the “inhibition (INH)” value (Cytochrome P450 2D6) was “Not Active”, the “inhibition (INH)” value (Cytochrome P450 3A4) was “Not Active” and the “inhibition (INH)” value (Cytochrome P450 2C9) was “Not Active”. For the same molecule, the hepatocyte CLint [17] was 6 µL/min/1e6 cells, the BPR (Rattus norvegicus [18]) was 1.56 and the Activity (Rattus norvegicus [4]) was 66%. It also gave a concentration at 6 h [19] of 42 ng/g, a Ki [5] of 9700 nM and a hepatocyte CLint [20] of less than 1 µL/min/1e6 cells. For the same molecule, the MED (Rattus norvegicus [21]) was 30 mg/kg and the Ki [6] was 2100 nM.

For `COc1cc(C)c2nc3[nH]nc(C)c3c(CN3CCOC(C)C3)c2c1` (stereo not drawn), the Activity (Rattus norvegicus [2]) was 130%, the Activity (Rattus norvegicus [3]) was 88% and the Activity (Rattus norvegicus [4]) was “inactive”. It also gave a Ki [5] of 8900 nM, a Ki [1] of 3 nM and a Ki [6] of 8300 nM.

Work on `COc1ccc2nc3[nH]nc(C)c3c(CN3CCCOCC3)c2c1` yielded a Ki [1] of 153 nM.

In the case of `COc1cc(C)c2nc3[nH]nc(C)c3c(CN3CCNC(=O)C3)c2c1`, the Activity (Rattus norvegicus [2]) is reported as “inactive” and the Ki [1] is reported as 9 nM.

With `COc1cc(C)c2nc3[nH]nc(C)c3c(CN3[C@@H]4CC[C@H]3C[C@@H](O)C4)c2c1` the Ki [1] was 265 nM.

`Cc1n[nH]c2nc3c(OC(F)(F)F)cc(Br)cc3c(CN3CCCOCC3)c12` gave a Ki [1] of 37 nM.

Work on `Cc1cc(Cl)cc2c(CN3C4CCC3CC4)c3c(C)n[nH]c3nc12` yielded a Ki [1] of 229 nM.

In the case of `Cc1cc(Cl)cc2c(CN3CCCOCC3)c3c(C)n[nH]c3nc12`, the Activity (Rattus norvegicus [2]) is reported as 87%, the Activity (Rattus norvegicus [3]) is reported as “inactive” and the Activity (Rattus norvegicus [4]) is reported as “inactive”. The Ki [1] was 41 nM.

With `COc1cc(C)c2nc3[nH]nc(C)c3c(CN3CCNCC3)c2c1` the Activity (Rattus norvegicus [2]) was “inactive” and the Ki [1] was 49 nM.

Molecule `Cc1cc(OC(C)C)cc2c(CN3CCCOCC3)c3c(C)n[nH]c3nc12` has a Ki [1] of 8 nM.

For `Cc1cc(Cl)cc2c(CN3CC4CC3CO4)c3c(C)n[nH]c3nc12` (stereo not drawn), the Ki [1] was 60 nM.

Work on `COc1cc(C)c2nc3[nH]nc(C)c3c(CN3CCC(C(F)(F)F)CC3)c2c1` yielded a Ki [1] of 871 nM.

For `Cc1n[nH]c2nc3ccc(C(F)(F)F)cc3c(CN3CCCOCC3)c12`, the Ki [1] was 104 nM.

Work on `COc1cc(C)c2nc3[nH]nc(C)c3c(CN3CCOC(C)(C)C3)c2c1` yielded a Ki [1] of 171 nM.

For `COc1cc(C)c2nc3[nH]nc(C)c3c(CN3CCCCC3)c2c1`, the Ki [1] was 804 nM.

For `COc1cc(C)c2nc3[nH]nc(C)c3c(CN3CCOCC3)c2c1`, the Activity (Rattus norvegicus [2]) was 109%, the Activity (Rattus norvegicus [3]) was 131% and the Activity (Rattus norvegicus [4]) was “inactive”. It also gave a Ki [5] of 10600 nM and a Ki [6] of 2000 nM.

`COc1cc(C)c2nc3[nH]nc(C)c3c(CN3CCCC(C(F)(F)F)C3)c2c1` (stereo not drawn) gave a Ki [1] of 353 nM.
